Source: patent US12157746B2, “Tetrahydro-1H-pyrazino[2,1-a]isoindolylquinoline compounds for the treatment of autoimmune disease” (F. HOFFMANN-LA ROCHE AG, priority 2018, dated 2024)

Biological target: T1, human TLR7 (Homo sapiens, UniProt Q9NYK1)
T1 sequence (Q9NYK1 27-1049): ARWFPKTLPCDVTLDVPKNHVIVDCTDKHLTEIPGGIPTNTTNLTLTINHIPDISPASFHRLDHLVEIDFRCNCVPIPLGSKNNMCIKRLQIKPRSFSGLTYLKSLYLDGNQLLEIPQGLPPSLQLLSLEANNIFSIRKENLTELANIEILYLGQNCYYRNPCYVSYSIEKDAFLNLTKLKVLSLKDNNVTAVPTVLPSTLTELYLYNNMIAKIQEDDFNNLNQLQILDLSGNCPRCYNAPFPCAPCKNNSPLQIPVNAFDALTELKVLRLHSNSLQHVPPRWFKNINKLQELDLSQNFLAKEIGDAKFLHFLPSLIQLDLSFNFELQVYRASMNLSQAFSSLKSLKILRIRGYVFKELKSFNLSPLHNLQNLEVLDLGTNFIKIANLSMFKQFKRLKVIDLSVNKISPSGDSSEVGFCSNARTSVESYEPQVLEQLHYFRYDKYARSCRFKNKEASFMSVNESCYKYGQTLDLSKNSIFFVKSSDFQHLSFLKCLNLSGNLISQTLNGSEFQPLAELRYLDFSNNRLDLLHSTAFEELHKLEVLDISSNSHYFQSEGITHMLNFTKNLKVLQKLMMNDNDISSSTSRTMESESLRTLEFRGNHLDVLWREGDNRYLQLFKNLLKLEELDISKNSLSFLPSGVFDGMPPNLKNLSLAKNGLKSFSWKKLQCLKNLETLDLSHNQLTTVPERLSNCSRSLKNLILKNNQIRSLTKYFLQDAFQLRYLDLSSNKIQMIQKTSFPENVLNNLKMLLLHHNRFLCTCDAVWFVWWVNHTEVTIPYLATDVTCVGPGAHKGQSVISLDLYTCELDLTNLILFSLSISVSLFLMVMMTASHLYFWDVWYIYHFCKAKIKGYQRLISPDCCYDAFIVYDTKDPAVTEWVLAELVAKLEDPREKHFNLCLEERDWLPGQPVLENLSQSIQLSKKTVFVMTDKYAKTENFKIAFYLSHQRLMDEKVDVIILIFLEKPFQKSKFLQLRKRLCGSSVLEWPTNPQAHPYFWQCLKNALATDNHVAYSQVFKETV
Experiment: HEK293-Blue-hTLR-7 cells assay
Assay type: cell-based
Settings: HEK293-Blue-hTLR7 cells, R848 stimulation, 20 hrs, SEAP reporter; read-out: HEK/hTLR7 IC50
Method in brief: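 HEK293-Blue-hTLR7 cells (NF-κB/AP-1-driven SEAP reporter) incubated with serially diluted compound (1% DMSO final) and R848 agonist for 20 h at 37 °C. Supernatant SEAP measured with QUANTI-Blue (2 h, 37 °C) by absorbance at 620-655 nm; antagonism seen as reduced reporter.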

SMILES | IC50
N#Cc1ccc(N2CCN3Cc4cc(N5CCNCC5)ccc4C3C2)c2cccnc12 (stereo not shown) [Example 3, 5-(8-piperazin-1-yl-3,4,6,10b-tetrahydro-1H-pyrazino[2,1-a]isoindol-2-yl)quinoline-8-carbonitrile] | 42.6 nM
C[C@@H]1CN(c2ccc(C#N)c3ncccc23)C[C@@H]2c3cc(F)c(N4CC5(CNC5)C4)cc3CN12 [Example 84, 5-[(4R,10bS)-8-(2,6-diazaspiro[3.3]heptan-2-yl)-9-fluoro-4-methyl-3,4,6,10b-tetrahydro-1H-pyrazino[2,1-a]isoindol-2-yl]quinoline-8-carbonitrile] | 2.6 nM
C[C@@H]1CN(c2ccc(C#N)c3ncccc23)C[C@@H]2c3ccc(N[C@@H]4CNCCOC4)cc3CN12 [Example 56A, 5-[(4R,10bS)-4-methyl-8-[[(6R)-1,4-oxazepan-6-yl]amino]-3,4,6,10b-tetrahydro-1H-pyrazino[2,1-a]isoindol-2-yl]quinoline-8-carbonitrile] | 11.1 nM
C[C@@H]1CN(c2ccc(C#N)c3ncsc23)C[C@@H]2c3ccc(N[C@H]4CNC[C@H]4F)cc3CN12 [Example 78, 7-[(4R,10bS)-8-[[(3S,4R)-4-fluoropyrrolidin-3-yl]amino]-4-methyl-3,4,6,10b-tetrahydro-1H-pyrazino[2,1-a]isoindol-2-yl]-1,3-benzothiazole-4-carbonitrile] | 1.2 nM
C[C@@H]1CN(c2ccc(C#N)c3ncccc23)C[C@@H]2c3ccc(N4C[C@@H]5CNCCN5C4=O)cc3CN12 [Example 71, 5-[(4R,10bS)-8-[(8aS)-3-oxo-1,5,6,7,8,8a-hexahydroimidazo[1,5-a]pyrazin-2-yl]-4-methyl-3,4,6,10b-tetrahydro-1H-pyrazino[2,1-a]isoindol-2-yl]quinoline-8-carbonitrile] | < 3.2 nM
C[C@@H]1CN(c2ccc(C#N)c3ncccc23)C[C@@H]2c3cccc(N[C@H]4CNC[C@H]4F)c3CN12 [Example 81, 5-[(4R,10bS)-7-[[(3S,4R)-4-fluoropyrrolidin-3-yl]amino]-4-methyl-3,4,6,10b-tetrahydro-1H-pyrazino[2,1-a]isoindol-2-yl]quinoline-8-carbonitrile] | 7.4 nM
CO[C@H]1CNC[C@@H]1N(C)c1ccc2c(c1)CN1[C@H](C)CN(c3ccc(C#N)c4ncccc34)C[C@H]21 [Example 64, 5-[(4R,10bS)-8-[[(3S,4S)-4-methoxypyrrolidin-3-yl]-methyl-amino]-4-methyl-3,4,6,10b-tetrahydro-1H-pyrazino[2,1-a]isoindol-2-yl]quinoline-8-carbonitrile] | < 3.2 nM
C[C@@H]1CN(c2ccc(C#N)c3ncccc23)C[C@@H]2c3ccc(NC[C@H]4CNCCO4)cc3CN12 [Example 59, 5-[(4R,10bS)-4-methyl-8-[[(2R)-morpholin-2-yl]methylamino]-3,4,6,10b-tetrahydro-1H-pyrazino[2,1-a]isoindol-2-yl]quinoline-8-carbonitrile] | < 3.2 nM
CO[C@@H]1CNC[C@H]1Nc1cc2c(cc1C)[C@H]1CN(c3ccc(C#N)c4ncccc34)C[C@@H](C)N1C2 [Example 63, 5-[(4R,10bS)-8-[[(3R,4R)-4-methoxypyrrolidin-3-yl]amino]-4,9-dimethyl-3,4,6,10b-tetrahydro-1H-pyrazino[2,1-a]isoindol-2-yl]quinoline-8-carbonitrile] | 7.3 nM
C[C@@H]1CN(c2ccc(C#N)c3ncccc23)C[C@@H]2c3ccc(N[C@H]4CNCCOC4)cc3CN12 [Example 56B, 5-[(4R,10bS)-4-methyl-8-[[(6S)-1,4-oxazepan-6-yl]amino]-3,4,6,10b-tetrahydro-1H-pyrazino[2,1-a]isoindol-2-yl]quinoline-8-carbonitrile] | 4.5 nM
C[C@@H]1CN(c2ccc(C#N)c3ncccc23)C[C@@H]2c3ccc(N4C[C@H]5CNCCN5C4=O)cc3CN12 [Example 72, 5-[(4R,10bS)-8-[(8aR)-3-oxo-1,5,6,7,8,8a-hexahydroimidazo[1,5-a]pyrazin-2-yl]-4-methyl-3,4,6,10b-tetrahydro-1H-pyrazino[2,1-a]isoindol-2-yl]quinoline-8-carbonitrile] | < 3.2 nM
C[C@@H]1CN(c2ccc(C#N)c3ncccc23)C[C@@H]2c3cc(F)c(N4C[C@H](N)[C@@](C)(O)C4)cc3CN12 [Example 83, 5-[(4R,10bS)-8-[(3S,4S)-4-amino-3-hydroxy-3-methyl-pyrrolidin-1-yl]-9-fluoro-4-methyl-3,4,6,10b-tetrahydro-1H-pyrazino[2,1-a]isoindol-2-yl]quinoline-8-carbonitrile] | 2.7 nM
C[C@@H]1CN(c2ccc(C#N)c3ncccc23)C[C@@H]2c3ccc(NCC4COCCN4)cc3CN12 (stereo partly drawn) [Example 57, 5-[(4R,10bS)-4-methyl-8-(morpholin-3-ylmethylamino)-3,4,6,10b-tetrahydro-1H-pyrazino[2,1-a]isoindol-2-yl]quinoline-8-carbonitrile] | 11.1 nM
C[C@@H]1CN(c2ccc(C#N)c3ncccc23)C[C@@H]2c3ccc(OC[C@@H]4C[C@H](F)CN4)cc3CN12 [Example 74, 5-[(4R,10bS)-8-[[(2S,4S)-4-fluoropyrrolidin-2-yl]methoxy]-4-methyl-3,4,6,10b-tetrahydro-1H-pyrazino[2,1-a]isoindol-2-yl]quinoline-8-carbonitrile] | 3.9 nM
C[C@@H]1CN(c2ccc(C#N)c3ncccc23)C[C@@H]2c3ccc(NC[C@@H]4CNCCO4)cc3CN12 [Example 58, 5-[(4R,10bS)-4-methyl-8-[[(2S)-morpholin-2-yl]methylamino]-3,4,6,10b-tetrahydro-1H-pyrazino[2,1-a]isoindol-2-yl]quinoline-8-carbonitrile] | < 3.2 nM
Cc1ccc(N2C[C@@H](C)N3Cc4cc(N[C@H]5CNC[C@H]5F)ccc4[C@H]3C2)c2nccnc12 [Example 76, (4R,10bS)—N-[(3S,4R)-4-fluoropyrrolidin-3-yl]-4-methyl-2-(8-methylquinoxalin-5-yl)-3,4,6,10b-tetrahydro-1H-pyrazino[2,1-a]isoindol-8-amine] | 22.8 nM
C[C@@H]1CN(c2ccc(C(F)(F)F)c3nccnc23)C[C@@H]2c3ccc(N[C@H]4CNC[C@H]4F)cc3CN12 [Example 77, (4R,10bS)—N-[(3S,4R)-4-fluoropyrrolidin-3-yl]-4-methyl-2-[8-(trifluoromethyl)quinoxalin-5-yl]-3,4,6,10b-tetrahydro-1H-pyrazino[2,1-a]isoindol-8-amine] | 12.6 nM
[2H]c1ccc2c(N3C[C@@H](C)N4Cc5cc(N6CC7(CNCCO7)C6)ccc5[C@H]4C3)ccc(C#N)c2n1 [Example 90, 5-[(4R,10bS)-4-methyl-8-(5-oxa-2,8-diazaspiro[3.5]nonan-2-yl)-3,4,6,10b-tetrahydro-1H-pyrazino[2,1-a]isoindol-2-yl]-2-deuterio-quinoline-8-carbonitrile] | 2.9 nM
C[C@@H]1CN(c2ccc(C#N)c3ncccc23)C[C@@H]2c3ccc(NC[C@@H]4C[C@H](F)CN4)cc3CN12 [Example 70, 5-[(4R,10bS)-8-[[(2S,4S)-4-fluoropyrrolidin-2-yl]methylamino]-4-methyl-3,4,6,10b-tetrahydro-1H-pyrazino[2,1-a]isoindol-2-yl]quinoline-8-carbonitrile] | 9 nM
CO[C@H]1CNCC[C@H]1Nc1ccc2c(c1)CN1[C@H](C)CN(c3ccc(C#N)c4ncccc34)C[C@H]21 [Example 66, 5-[(4R,10bS)-8-[[(3S,4R)-3-methoxy-4-piperidyl]amino]-4-methyl-3,4,6,10b-tetrahydro-1H-pyrazino[2,1-a]isoindol-2-yl]quinoline-8-carbonitrile] | < 3.2 nM
C[C@@H]1CN(c2ccc(C#N)c3ncccc23)C[C@@H]2c3cccc(NCCN4CC[C@H](O)C4)c3CN12 [Example 80, 5-[(4R,10bS)-7-[2-[(3S)-3-hydroxypyrrolidin-1-yl]ethylamino]-4-methyl-3,4,6,10b-tetrahydro-1H-pyrazino[2,1-a]isoindol-2-yl]quinoline-8-carbonitrile] | 17.9 nM

System: not listed separately
Experiment: Human microsomal stability assay
Assay type: in vitro ADME
Settings: human liver microsomes 0.5 mg/mL, 37° C., pH 7.4, NADPH regenerating system, 0-30 minutes
Method in brief: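 Human liver microsomes (0.5 mg/mL) with […] compound in 100 mM potassium phosphate, pH 7.4, 37° C; reaction started with NADPH regenerating system after 10 min preincubation. Parent remaining at 0–30 min quantified by LC-MS/MS; clearance binned low (<7.0), medium (7.0-16.2) or high (16.2-23.2) mL/min/kg.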

SMILES | CL (h)
N#Cc1ccc(N2CCN3Cc4cc(N5CCNCC5)ccc4C3C2)c2cccnc12 (stereo not shown) [Example 3, 5-(8-piperazin-1-yl-3,4,6,10b-tetrahydro-1H-pyrazino[2,1-a]isoindol-2-yl)quinoline-8-carbonitrile] | 6.2 mL/min/kg
